This passage reports Emax and EC50 results from patent US20250002507A1, “7,8-DIHYDRO-5H-1,6-NAPHTHYRIDINE DERIVATIVES AS POSITIVE ALLOSTERIC MODULATORS OF THE MUSCARINIC ACETYLCHOLINE RECEPTOR M4 FOR TREATING NEUROLOGICAL AND PSYCHIATRIC DISORDERS” (Vanderbilt University, priority 2021, published 2025).

For the assay, the target named is T1, Human M4 (Homo sapiens, UniProt P08173).
T1 construct: expressed in transfected cells
T1 sequence (P08173 1-479): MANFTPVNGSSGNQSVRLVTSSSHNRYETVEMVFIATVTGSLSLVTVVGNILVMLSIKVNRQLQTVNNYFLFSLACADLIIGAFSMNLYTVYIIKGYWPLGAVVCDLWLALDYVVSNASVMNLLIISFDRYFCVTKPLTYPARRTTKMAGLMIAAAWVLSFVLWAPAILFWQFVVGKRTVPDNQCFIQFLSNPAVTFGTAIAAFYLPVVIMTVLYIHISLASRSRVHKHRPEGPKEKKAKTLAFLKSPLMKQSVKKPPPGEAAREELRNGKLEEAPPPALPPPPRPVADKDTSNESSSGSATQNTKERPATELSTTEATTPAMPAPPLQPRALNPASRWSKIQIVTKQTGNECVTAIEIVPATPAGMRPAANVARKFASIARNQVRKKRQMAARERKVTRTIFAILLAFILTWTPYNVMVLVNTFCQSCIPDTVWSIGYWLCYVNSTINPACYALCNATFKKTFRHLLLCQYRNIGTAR
Description: mAChR M4 cell-based functional assay (calcium flux, potentiation of EC20 acetylcholine response), hM4-Gqi5 CHO-K1 cells. Conditions: for Emax at 30 µM: CHO-K1, Human M4, % ACh maximum at 30 μM, read-out: Emax (% ACh maximum at 30 μM); for Emax at 30 µM / EC50: Table 3; for EC50: potentiation of EC20 acetylcholine response, calcium flux, CHO-K1 cells, read-out: Human M4 EC50. Summed up: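 CHO-K1 cells stably expressing human M4 with chimeric Gqi5, loaded with Fluo-4 AM 50 min at 37 °C; calcium flux read by FDSS. 11-point 1:3 compound curves added, then EC20 acetylcholine at 144 s; potentiation of the EC20 response fitted by four-parameter logistic to give EC50 and Emax.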
(Calcium assays in cells follow changes in intracellular calcium, usually with a dye or a luminescent sensor.)

The term Emax denotes the greatest response seen or fitted, relative to the assay's reference. As a reminder, the EC50 is the concentration giving half of the maximal effect. Turning to `Cc1c(N2CCc3ncc(-c4ccc(N5CCCC5)nc4)cc3C2)nn2cnnc2c1C` [Compound 207, 6-(7,8-dimethyl-[1,2,4]triazolo[4,3-b]pyridazin-6-yl)-3-(6-(pyrrolidin-1-yl)pyridin-3-yl)-5,6,7,8-tetrahydro-1,6-naphthyridine], the Emax at 30 µM turned out to be 73% and the EC50 amounted to 401 nM.
Take `Cc1c(N2CCc3ncc(-c4ccc(N5CC6(C5)CC(F)(F)C6)nc4)cc3C2)nn2cnnc2c1C` [Compound 208, 3-(6-(6,6-difluoro-2-azaspiro[3.3]heptan-2-yl)pyridin-3-yl)-6-(7,8-dimethyl-[1,2,4]triazolo[4,3-b]pyridazin-6-yl)-5,6,7,8-tetrahydro-1,6-naphthyridine]: the Emax at 30 µM is 96% and the EC50 came to 463 nM.
On to `Cc1c(N2CCc3ncc(N4CCCn5nccc54)cc3C2)nn2cnnc2c1C` [Compound 209, 3-(6,7-dihydropyrazolo[1,5-a]pyrimidin-4(5H)-yl)-6-(7,8-dimethyl-[1,2,4]triazolo[4,3-b]pyridazin-6-yl)-5,6,7,8-tetrahydro-1,6-naphthyridine], for which the Emax at 30 µM was determined as 99% and the EC50 was 71 nM.
For the compound `Cc1c(N2CCc3ncc(Nc4nn(C)c5ccccc45)cc3C2)nn2cnnc2c1C` [Compound 210, 6-(7,8-dimethyl-[1,2,4]triazolo[4,3-b]pyridazin-6-yl)-N-(1-methyl-1H-indazol-3-yl)-5,6,7,8-tetrahydro-1,6-naphthyridin-3-amine], the Emax at 30 µM was found to be 69% and the EC50 worked out at 900 nM.
For `Cc1cc(Nc2cnc3c(c2)CN(c2nn4cnnc4c(C)c2C)CC3)n(CCC(C)C)n1` [Compound 211, 6-(7,8-dimethyl-[1,2,4]triazolo[4,3-b]pyridazin-6-yl)-N-(1-isopentyl-3-methyl-1H-pyrazol-5-yl)-5,6,7,8-tetrahydro-1,6-naphthyridin-3-amine], in that order: 38% and 4120 nM.
On to `Cc1cc(Nc2cnc3c(c2)CN(c2nn4cnnc4c(C)c2C)CC3)n(CC(C)C)n1` [Compound 212, 6-(7,8-dimethyl-[1,2,4]triazolo[4,3-b]pyridazin-6-yl)-N-(1-isobutyl-3-methyl-1H-pyrazol-5-yl)-5,6,7,8-tetrahydro-1,6-naphthyridin-3-amine], for which the Emax at 30 µM stood at 41% and the EC50 amounted to 5410 nM.
Regarding `CCCCn1nc(C)cc1Nc1cnc2c(c1)CN(c1nn3cnnc3c(C)c1C)CC2` [Compound 213, N-(1-butyl-3-methyl-1H-pyrazol-5-yl)-6-(7,8-dimethyl-[1,2,4]triazolo[4,3-b]pyridazin-6-yl)-5,6,7,8-tetrahydro-1,6-naphthyridin-3-amine], the Emax at 30 µM was 52% and the EC50 is 2480 nM.
`Cc1cc(Nc2cnc3c(c2)CN(c2nn4cnnc4c(C)c2C)CC3)n(C(C)C)n1` [Compound 214, 6-(7,8-dimethyl-[1,2,4]triazolo[4,3-b]pyridazin-6-yl)-N-(1-isopropyl-3-methyl-1H-pyrazol-5-yl)-5,6,7,8-tetrahydro-1,6-naphthyridin-3-amine]: the Emax at 30 µM stood at 45% and the EC50 was 5500 nM.
For the compound `Cc1c(N2CCc3ncc(-c4ccc(N5CCC(F)(F)CC5)nc4)cc3C2)nn2cnnc2c1C` [Compound 215, 3-(6-(4,4-difluoropiperidin-1-yl)pyridin-3-yl)-6-(7,8-dimethyl-[1,2,4]triazolo[4,3-b]pyridazin-6-yl)-5,6,7,8-tetrahydro-1,6-naphthyridine], the Emax at 30 µM is 86% and the EC50 stood at 351 nM.
On to `Cc1c(N2CCc3ncc(-c4ccc(N5CCCC(F)C5)nc4)cc3C2)nn2cnnc2c1C` (centres unmarked) [Compound 216, 6-(7,8-dimethyl-[1,2,4]triazolo[4,3-b]pyridazin-6-yl)-3-(6-(3-fluoropiperidin-1-yl)pyridin-3-yl)-5,6,7,8-tetrahydro-1,6-naphthyridine], for which the Emax at 30 µM turned out to be 82% and the EC50 turned out to be 224 nM.
Take `Cc1c(N2CCc3ncc(-c4ccc(N5CCC5)nc4)cc3C2)nn2cnnc2c1C` [Compound 217, 3-(6-(azetidin-1-yl)pyridin-3-yl)-6-(7,8-dimethyl-[1,2,4]triazolo[4,3-b]pyridazin-6-yl)-5,6,7,8-tetrahydro-1,6-naphthyridine]: the Emax at 30 µM was 83% and the EC50 was found to be 223 nM.
Consider `Cc1c(N2CCc3ncc(C(C)C)cc3C2)nn2cnnc2c1C` [Compound 218, 6-(7,8-dimethyl-[1,2,4]triazolo[4,3-b]pyridazin-6-yl)-3-isopropyl-5,6,7,8-tetrahydro-1,6-naphthyridine], for which the Emax at 30 µM is 89% and the EC50 amounted to 186 nM.
Turning to `Cc1c(N2CCc3ncc(C(C)(C)O)cc3C2)nn2c(C(F)(F)F)nnc2c1C` [Compound 219, 2-(6-(7,8-dimethyl-3-(trifluoromethyl)-[1,2,4]triazolo[4,3-b]pyridazin-6-yl)-5,6,7,8-tetrahydro-1,6-naphthyridin-3-yl)propan-2-ol], the Emax at 30 µM stood at 81% and the EC50 amounted to 906 nM.
In the case of `Cc1c(N2CCc3ncc(O)cc3C2)nn2cnnc2c1C` [Compound 220, 6-(7,8-dimethyl-[1,2,4]triazolo[4,3-b]pyridazin-6-yl)-5,6,7,8-tetrahydro-1,6-naphthyridin-3-ol], the EC50 is 1370 nM. Also, the Emax (CHO-K1, read-out: Emax (% ACh maximum at 30 μM)) was 81%.
For `Cc1c(N2CCc3ncc(OCC(C)C)cc3C2)nn2cnnc2c1C` [Compound 221, 6-(7,8-dimethyl-[1,2,4]triazolo[4,3-b]pyridazin-6-yl)-3-isobutoxy-5,6,7,8-tetrahydro-1,6-naphthyridine], the Emax at 30 µM was 76% and the EC50 is 588 nM.
With `Cc1c(N2CCc3ncc(C4CC4)cc3C2)nn2c(C(F)(F)F)nnc2c1C` [Compound 222, 3-cyclopropyl-6-(7,8-dimethyl-3-(trifluoromethyl)-[1,2,4]triazolo[4,3-b]pyridazin-6-yl)-5,6,7,8-tetrahydro-1,6-naphthyridine], the maximum response (Emax) at 30 µM amounted to 83% and the EC50 amounted to 88 nM.
`Cc1c(N2CCc3ncc(-c4ccc(N5CCOCC5)cc4)cc3C2)nn2cnnc2c1C` [Compound 223, 4-(4-(6-(7,8-dimethyl-[1,2,4]triazolo[4,3-b]pyridazin-6-yl)-5,6,7,8-tetrahydro-1,6-naphthyridin-3-yl)phenyl)morpholine]: the Emax at 30 µM came out at 95% and the EC50 was determined as 329 nM.
With `Cc1c(N2CCc3ncc(-c4ccc(N5CCN(C)CC5)cc4)cc3C2)nn2cnnc2c1C` [Compound 224, 6-(7,8-dimethyl-[1,2,4]triazolo[4,3-b]pyridazin-6-yl)-3-(4-(4-methylpiperazin-1-yl)phenyl)-5,6,7,8-tetrahydro-1,6-naphthyridine], the Emax at 30 µM was determined as 100% and the EC50 turned out to be 581 nM.
For the compound `Cc1c(N2CCc3ncc(-c4ccc(N5CCC(F)(F)C5)nc4)cc3C2)nn2cnnc2c1C` [Compound 225, 3-(6-(3,3-difluoropyrrolidin-1-yl)pyridin-3-yl)-6-(7,8-dimethyl-[1,2,4]triazolo[4,3-b]pyridazin-6-yl)-5,6,7,8-tetrahydro-1,6-naphthyridine], the Emax at 30 µM was determined as 85% and the EC50 amounted to 435 nM.
